Experiment [1] relates to sickle RBCs. The experiment can be described thus: Microfluidic hypoxia assay: anti-sickling effect of Aes-103 on sickle RBCs incubated in vitro. It counts as cell-based, human. On the procedure: (§1) Cell sickling was measured using a double-layer device with a cell channel (5 μm high), a gas channel (100 μm high) and an in-between PDMS film 150 μm in thickness (FIG. 1A). The O2 concentration was controlled by exchanging gas flow in the channel through the PDMS membrane that is gas-permeable (33). […] Sickle RBCs typically form spiky edges and dark coarse texture due to intracellular HbS polymerization, the visual identification of which was enhanced by a band-pass filter (FIG. 1B). Thus the sickled cells were defined as those obviously distorted from their original shape and texture under Oxy state (O2 concentration 20%) to the DeOxy state (O2 concentration <5%). […] The delay time of cell unsickling was defined as the time elapsed between the initiation of reoxygenation (ReOxy) and the point when the RBC fully recovered its pre-sickle morphology in a visibly identifiable manner.
(§2) For the Aes-103 testing, blood samples from 3 on-HU and 3 off-HU patients were incubated with Aes-103 at different concentrations (0.5, 1, 2, and 5 mM) for one hour at 37° C. before the in vitro sickling test. […] The fractionation gradient was built up with four layers of 2.5 ml Optiprep-DPBS medium of densities of 1.081, 1.091, 1.100 and 1.111 g/ml, respectively. 1 ml blood sample was washed twice with Phosphate Buffered Saline (PBS) at 2000 rpm for 5 minutes at 21° C. and diluted into 70-80% hematocrit. […] The four fractions, Density 1 through Density 4 have mean densities of 1.086±0.005 g/ml, 1.095±0.005 g/ml, 1.105±0.005 g/ml, and >1.111 g/ml, respectively. Fractionated sickle RBCs were then suspended with RPMI-1640 containing 1% w/v Bovine Serum Albumin (BSA) (Sigma-Aldrich, St Louis, Mo.) and stored at 4° C. until shortly before use to avoid metabolic depletion.
(§3) As Ru(dpp)3C12 is water insoluble, it was dissolved in Acetone-RPMI (volume ratio of 1:2) at 0.8 mg/ml and injected into the cell channel. […] Short-term and long-term hypoxia conditions held the durations of DeOxy state (O2 concentration<5%) about 25 s and 220 s, respectively.

Experiment [2] has as its system sickle RBCs. The experiment is described as follows: Kinetics of cell sickling and unsickling under transient hypoxia, patient samples on-HU vs off-HU. The class given is cell-based, human. On the procedure:
as §1
Kinetics of individual cell sickling and unsickling under transient hypoxia conditions was quantified by the delay time and the maximum sickled fraction on 25 SCD patient samples: 7 patients without HU therapy (off-HU) and 18 patients with HU therapy (on-HU) (see patient's HU status in Materials and Methods Text). Short-term and a long-term hypoxia conditions were created to simulate normal and retarded transit scenarios in microvasculature (FIGS. 2A-B). Representative cell sickling profiles upon changes in O2 concentration are shown (FIG. 2C). Compared to the relatively long sickling process (>100 s for sickled fraction rising from zero to a saturated, maximum level), the unsickling process after ReOxy was much faster (<20 s for sickled fraction reducing from the saturated level to zero), disregarding the small discrepancy in the DeOxy and ReOxy rates (<20 s). This observation applied to all patient sample.
as §2

Experiment [3] concerns sickle RBCs. The experiment is described as follows: Individual sickle RBC rheology through micro-gates under transient hypoxia, on-HU vs off-HU.
Experiment [4] concerns sickle RBCs. The experiment is described as follows: Kinetics of cell sickling of density-fractionated sickle RBC populations, on-HU vs off-HU. The class given is cell-based, human.
Description: In order to quantify the effects of cell density on the kinetics of cell sickling and unsickling, we categorized sickle RBCs into four populations with average cell densities of 1.086±0.005 g/ml (Density 1), 1.095±0.005 g/ml (Density 2), 1.105±0.005 g/ml (Density 3), and >1.111 g/ml (Density 4) for 20 SCD samples from 6 off-HU patients and 14 on-HU patients. The majority of sickle RBCs fell within Density 2 and Density 3 (FIG. 8A). We noticed a significant difference in sickling growth curve among different density populations of individual blood samples under both short-term and long-term DeOxy states (FIGS. 8B and C). Results of delay time of cell sickling and sickled fraction were examined along with cell density and the patient's HU status. Delay time of cell sickling decreased with cell density (FIG. 5A), which can be rationalized by the hydration state of the cells (39, 40).
as §2, §3

Entries after “also recorded” stand apart in the source; their conditions may differ.

With `O=Cc1ccc(CO)o1` [Aes-103, 5-hydroxymethylfurfural], the “change in cell sickling from baseline” value with sickle RBCs [1] (2 mM Aes-103 incubation, each patient sample) is “significant decrease in cell sickling from its baseline”. Further, the maximum sickled fraction in the experiment on sickle RBCs [1] (5 mM Aes-103, one hour at 37° C., hypoxia 2% O2, 3 on-HU and 3 off-HU patient samples) is on record as < 5%. Besides, the “sickled fraction of one patient sample” value with sickle RBCs [1] (5 mM Aes-103, one patient sample) is given as “nearly zero”. Also, in the experiment on sickle RBCs [1] (Aes-103 0.5-5 mM, long-term hypoxia), the “dependence of sickled fraction on Aes-103 concentration (anti-sickling effect)” value is on record as “strong correlation with the drug concentration; also recorded: decreased with drug concentration; also recorded: dosage-dependent manner”.
As to `NC(=O)NO` [HU, hydroxyurea], in the experiment with sickle RBCs [2] (5% sickled fraction, p<0.01), the “delay time of sickling, on-HU group compared with off-HU group” value is “significantly longer”. In the experiment on sickle RBCs [2] (10% sickled fraction, six cases, suggesting beneficial effect of HU therapy), the “delay time of cell sickling, six cases” value is given as > 60 s. In addition, the “influence of HU therapy on delay time of cell sickling to saturated sickled fraction” value in the experiment on sickle RBCs [2] (long-term DeOxy state, p<0.02) is “statistically significant”. Also, the “delay time of cell unsickling, on-HU vs off-HU” value with sickle RBCs [2] (long-term DeOxy state, p=0.24) is recorded as “no significant difference”. Further, in the experiment on sickle RBCs [2] (short-term DeOxy state (O2 <5% for 25 s), all on-HU samples, significantly lower than off-HU (p=0.03)), the maximum sickled fraction result was “below 15%”. Also, in the experiment with sickle RBCs [3] (7 on-HU and 7 off-HU patient samples, DeOxy state, p=0.04), the “capillary obstruction ratio, on-HU vs off-HU” value is reported as “significantly lower”. Moreover, the “cell velocity, on-HU vs off-HU” value in the experiment with sickle RBCs [3] (individual RBCs through periodic micro-gates) is on record as “lower than those for the off-HU group”. In the experiment with sickle RBCs [4] (Densities 1 through 3, long-term DeOxy), the “delay time for unsickling, on-HU vs off-HU” value is “did not vary significantly”. Further, the “delay time of cell sickling with HU therapy, Densities 3 and 4” value in the experiment with sickle RBCs [4] (Densities 3 and 4, p=0.01 and p=0.06) is “marked extension”. Further, in the experiment with sickle RBCs [4] (density-fractionated populations, short-term DeOxy, p<0.02), the “mean delay time of cell sickling, on-HU vs off-HU cases” value is recorded as “statistically higher”. Besides, in the experiment with sickle RBCs [4] (short-term hypoxia, particularly Densities 3 and 4 (p=0.01 and p=0.001)), the “sickled fraction with HU therapy” value was “significantly suppressed”.

The values above are taken from patent US20180267021A1, “METHODS AND DEVICES FOR ASSESSING CELL PROPERTIES UNDER CONTROLLED GAS ENVIRONMENTS” (Carnegie Mellon University, priority 2014, published 2018).
